Results published in patent US8158647B2, “Substituted pyrrolopyridines and pyrazolopyridines as kinase modulators” (SGX Pharmaceuticals, Inc., priority 2007, dated 2012).

How the values were obtained:
ABL P210WT BAF3 cells = target: T1, ABL P210WT BAF3 cells (Homo sapiens, UniProt P00519); experiment: 96-well XTT cell survival assay, BaF3 ABL P210WT; type: cell-based; conditions: ABL P210 WT, 72 hours, read-out: CELL BIO ABL P210WT BAF3 XTT (IC50)
T1 construct: ABL P210WT BAF3; fused on or other part: P11274 (Breakpoint cluster region protein)
Description: (§1) MV4-11 and THP cells were maintained in Iscove's Modified Dulbecco's Medium supplemented with 10% fetal bovine serum (FBS) and penicillin/streptomycin, Ba/F3 cells were maintained in RPMI 1640 supplemented with 10% FBS, penicillin/streptomycin and 5 ng/ml recombinant mouse IL-3.
(§2) Compounds were tested in the following assays in duplicate.
(§3) 96-well XTT assay: Cells (e.g. BaF3 315I, M3511, or E255K cells) were grown in growth media containing various concentrations of compounds (duplicates) on a 96-well plate for 72 hours at 37° C. The starting cell number was 5000-8000 cells per well and volume was 120 μl. At the end of the 72-hour incubation, 40 μl of XTT labeling mixture (50:1 solution of sodium 3′-[1-(phenylamino-carbonyl)-3,4-tetrazolium]-bis(4-methoxy-6-nitro) benzene sulfonic acid hydrate and Electron-coupling reagent: PMS (N-methyl dibenzopyrazine methyl sulfate) were added to each well of the plate. After an additional 2-6 hours of incubation at 37° C., the absorbance reading at 405 nm with background correction at 650 nm was measured with a spectrophotometer.

ABL T315I BAF3 cells = target: T2, ABL T315I BAF3 cells (Homo sapiens, UniProt P00519, T315I, cells depend on it); experiment: 96-well XTT cell survival assay, BaF3 ABL T315I; type: cell-based; conditions: 72 hours, read-out: CELL BIO ABL T315I BAF3 XTT (IC50)
T2 construct: ABL T315I BAF3; fused on or other part: P11274 (Breakpoint cluster region protein)
Description: as §1, §2, §3

[1] = target: T3, purified and unphosphorylated T315I Abl kinase domain (ABL_T315I_0P) (Mus musculus, UniProt P00520, T315I); experiment: c-Abl T315I (unphosphorylated kinase domain) pyruvate kinase/lactate dehydrogenase coupled enzyme assay; type: biochemical; conditions: 10 μM ATP
T3 construct: The c-Abl T3151 KD (kinase domain) was purified as follows; Met-Ser-Leu (vector-derived residues) (N); made in house; host or cells: E. coli BL21(DE3) strains (Codon+RIL, or pSA0145 for the lambda phosphatase co-expression plasmid)
T3 sequence (P00520 242-493 T315I limits assumed): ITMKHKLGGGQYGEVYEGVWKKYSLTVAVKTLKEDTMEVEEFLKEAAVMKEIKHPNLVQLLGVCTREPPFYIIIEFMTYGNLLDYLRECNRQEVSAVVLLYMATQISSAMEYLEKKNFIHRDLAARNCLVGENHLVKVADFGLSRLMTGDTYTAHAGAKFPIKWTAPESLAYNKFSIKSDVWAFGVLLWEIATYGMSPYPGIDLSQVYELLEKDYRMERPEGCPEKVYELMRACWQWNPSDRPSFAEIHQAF
Excerpt: Although the first of these examples uses the kinase domain of a mutant form of Abl T315I (“Abl T315I KD”), the kinase assays may use various forms of mutant and wild type enzymes, including, for example, the entire protein, the kinase domain, or a portion thereof (e.g. Abl Y393F). The kinases used in the assays may also be of varying phosphorylation states. In the c-Abl example, a mutant kinase at a zero phosphorylation state was used.
c-Abl Pyruvate Kinase/Lactate Dehydrogenase Coupled Enzyme Assay
In the c-Abl Pyruvate Kinase (PK)/Lactate Dehydrogenase (LDH) Coupled Assay the protein kinase dependant phosphorylation of a substrate peptide was coupled to the oxidation of NADH. The oxidation of NADH to NAD+ was detected by monitoring a decrease in absorbance at 340 nm.
Materials: Abl substrate peptide=EAIYAAPFAKKK-OH (SEQ ID NO: 1) (Biopeptide, San Diego, Calif.); […]NADH (Sigma Cat#N-8129, FW=709.4); 2M MgCl2; 1M HEPES buffer, pH 7.5; Phosphoenolpyruvate (PEP) (Sigma Cat#P-7002, FW=234); Lactate dehydrogenase (LDH) (Worthington Biochemical Cat#2756); Pyruvate Kinase (PK) (Sigma Cat#P-9136); ATP (Sigma Cat#A-3377, FW=551); Greiner 384-well UV star plate; and purified and unphosphorylated T3151 Abl kinase domain.
Stock Solutions: 10 mM NADH (7.09 mg/ml in miliQH2O) made fresh daily; 10 mM Abl substrate peptide (13.4 mg/ml in miliQH2O) stored at −20° C.; 100 mM HEPES buffer, pH 7.5 (5 ml 1M stock+45 ml miliQH2O); 100mM MgCl2 (5 ml 2M MgCl2+95 ml dH2O); 100 mM PEP (23.4 mg/ml in dH2O) stored at −20° C.; 10mM ATP (5.51 mg/ml in dH2O) stored at −20° C. (diluted 50 μl into total of 10 ml miliQH2O daily=50 μM ATP working stock); 1000 U/ml PK (U/mg varies with lot) flash-frozen under liquid N2 and stored at −80° C.; and 1000 U/ml LDH (U/mg varies with lot) flash-frozen under liquid N2 and stored at −80° C.
Standard Assay Setup for 384-well format (50 μl reaction): 300 μM NADH; 10 mM MgCl2; 2 mM PEP; 45 U/ml PK; 60 U/ml LDH; 200 μM Abl substrate peptide; 2.5 μl test compound (in DMSO); 2 μg/ml Abl kinase domain; 10 μM ATP; 100 mM HEPES buffer. Positive controls contained DMSO with no test compound. Negative controls contained 5 μl of 0.5M EDTA (50 mM in the assay). The dephosphorylated form of the c-Abl T315I mutant was used in the biochemical screening assays. The kinase reaction was initiated at time t=0 by the addition of ATP.
Activity was measured by following the time-dependent loss of NADH by absorbance spectroscopy at 340 nm. The linear portion of the resulting progress curve was then analyzed by linear regression to get the activity in absorbance units/time, reported as the slope of that best fit line (moles/unit time can be calculated from using molar extinction coefficient for NADH at 340 nm, 6250M^−1 cm^−1).
Screening data was evaluated using the equation: Z′=1-[3*(σ++σ−)/|μ+−μ−|] (Zhang, et al., 1999 J Biomol Screening 4(2) 67-73), where μ denotes the mean and σ the standard deviation. The subscript designates positive or negative controls. The Z′ score for a robust screening assay should be ≧0.50. The typical threshold=μ+−3*σ+−. Any value that falls below the threshold was designated a “hit”.
Dose response was analyzed using the equation: y=min+{(max−min)/(1+10^[compound]−logIC50)}, where y is the observed initial slope, max=the slope in the absence of inhibitor, min=the slope at infinite inhibitor, and the IC50 is the [compound] that corresponds to ½ the total observed amplitude (Amplitude=max−min).
To measure modulation, activation, or inhibition of Abl KD, a test compound was added to the assay at a range of concentrations. Inhibitors may inhibit Abl KD activity at an IC50 in the micromolar range, the nanomolar range, or, for example, in the subnanomolar range.
An open-reading frame for c-Abl was amplified from a Mus musculus (mouse) cDNA library prepared from freshly harvested mouse liver using a commercially available kit (Invitrogen) by PCR using the following primers: […]
The c-Abl T3151 KD (kinase domain) was purified as follows. […]

Row | ABL_T315I_0P (IC50) [1] | SMILES | GI50 (ABL P210WT BAF3 cells) [nM] | GI50 (ABL T315I BAF3 cells) [nM]
1 | D (<0.01 μM) | CN(C)C(=O)c1cc(-c2cnc3[nH]cc(-c4ccccc4F)c3c2Cl)cnc1N [2-Amino-5-[4-chloro-3-(2-fluoro-phenyl)-1H-pyrrolo[2,3-b]pyridin-5-yl]-N,N-dimethyl-nicotinamide] | 100 to 1000 | 100 to 1000
2 | D (<0.01 μM) | COc1ccccc1-c1c[nH]c2ncc(-c3cnc(N)c(C(=O)N(C)C)c3)c(Cl)c12 [2-Amino-5-[4-chloro-3-(2-methoxy-phenyl)-1H-pyrrolo[2,3-b]pyridin-5-yl]-N,N-dimethyl-nicotinamide] | < 10 | < 10
3 | D (<0.01 μM) | COc1ncccc1-c1c[nH]c2ncc(-c3cnc(N)c(C(=O)N(C)C)c3)c(Cl)c12 [2-Amino-5-[4-chloro-3-(2-methoxy-pyridin-3-yl)-1H-pyrrolo[2,3-b]pyridin-5-yl]-N,N-dimethyl-nicotinamide] | 10 to 100 | 10 to 100
4 | D (<0.01 μM) | CN(C)C(=O)c1cc(-c2cnc3[nH]cc(-c4ccc5c(c4)CC(=O)N5)c3c2Cl)cnc1N [2-Amino-5-[4-chloro-3-(2-oxo-2,3-dihydro-1H-indol-5-yl)-1H-pyrrolo[2,3-b]pyridin-5-yl]-N,N-dimethyl-nicotinamide] | 100 to 1000 | > 1000
5 | D (<0.01 μM) | CCN(C)C(=O)c1cc(-c2cnc3[nH]cc(-c4cccc(F)c4)c3c2Cl)cnc1N [2-Amino-5-[4-chloro-3-(3-fluoro-phenyl)-1H-pyrrolo[2,3-b]pyridin-5-yl]-N-ethyl-N-methyl-nicotinamide] | 10 to 100 | 10 to 100
6 | D (<0.01 μM) | COc1cc(Cl)ccc1-c1c[nH]c2ncc(-c3cnc(N)c(C(=O)N(C)C)c3)c(Cl)c12 [2-Amino-5-[4-chloro-3-(4-chloro-2-methoxy-phenyl)-1H-pyrrolo[2,3-b]pyridin-5-yl]-N,N-dimethyl-nicotinamide] | 10 to 100 | 10 to 100
7 | D (<0.01 μM) | COc1cc(F)ccc1-c1c[nH]c2ncc(-c3cnc(N)c(C(=O)N(C)C)c3)c(Cl)c12 [2-Amino-5-[4-chloro-3-(4-fluoro-2-methoxy-phenyl)-1H-pyrrolo[2,3-b]pyridin-5-yl]-N,N-dimethyl-nicotinamide] | 10 to 100 | 10 to 100

More lines, now with the values behind:

Row | SMILES | ABL_T315I_0P (IC50) [1] | GI50 (ABL P210WT BAF3 cells) [nM] | GI50 (ABL T315I BAF3 cells) [nM]
8 | CCN(C)C(=O)c1cc(-c2cnc3[nH]cc(-c4cc(F)ccc4F)c3c2Cl)cnc1N [2-Amino-5-[4-chloro-3-(2,5-difluoro-phenyl)-1H-pyrrolo[2,3-b]pyridin-5-yl]-N-ethyl-N-methyl-nicotinamide] | D (<0.01 μM) | 100 to 1000 | 100 to 1000
9 | CN(C)C(=O)c1cc(-c2cnc3[nH]cc(-c4cc(F)ccc4Cl)c3c2Cl)cnc1N [2-Amino-5-[4-chloro-3-(2-chloro-5-fluoro-phenyl)-1H-pyrrolo[2,3-b]pyridin-5-yl]-N,N-dimethyl-nicotinamide] | D (<0.01 μM) | 100 to 1000 | 100 to 1000
10 | COc1ccc(C(F)(F)F)cc1-c1c[nH]c2ncc(-c3cnc(N)c(C(=O)N(C)C)c3)c(Cl)c12 [2-Amino-5-[4-chloro-3-(2-methoxy-5-trifluoromethyl-phenyl)-1H-pyrrolo[2,3-b]pyridin-5-yl]-N,N-dimethyl-nicotinamide] | D (<0.01 μM) | 100 to 1000 | 100 to 1000
11 | COc1ccccc1-c1c[nH]c2ncc(-c3ccc(N)c(C(=O)N(C)C)c3)c(Cl)c12 [2-Amino-5-[4-chloro-3-(2-methoxy-phenyl)-1H-pyrrolo[2,3-b]pyridin-5-yl]-N,N-dimethyl-benzamide] | D (<0.01 μM) | < 10 | < 10
12 | CN(C)C(=O)c1cc(-c2cnc3[nH]cc(-c4cccc(F)c4)c3c2Cl)cnc1N [2-Amino-5-[4-chloro-3-(3-fluoro-phenyl)-1H-pyrrolo[2,3-b]pyridin-5-yl]-N,N-dimethyl-nicotinamide] | D (<0.01 μM) | 100 to 1000 | 100 to 1000
13 | COc1cc(F)c(F)cc1-c1c[nH]c2ncc(-c3cnc(N)c(C(=O)N(C)C)c3)c(Cl)c12 [2-Amino-5-[4-chloro-3-(4,5-difluoro-2-methoxy-phenyl)-1H-pyrrolo[2,3-b]pyridin-5-yl]-N,N-dimethyl-nicotinamide] | D (<0.01 μM) | 10 to 100 | 10 to 100
14 | COc1ccc(F)cc1-c1c[nH]c2ncc(-c3cnc(N)c(C(=O)N(C)C)c3)c(Cl)c12 [2-Amino-5-[4-chloro-3-(5-fluoro-2-methoxy-phenyl)-1H-pyrrolo[2,3-b]pyridin-5-yl]-N,N-dimethyl-nicotinamide] | D (<0.01 μM) | < 10 | < 10
15 | COc1ccccc1-c1c[nH]c2ncc(-c3cncc(C(O)C(=O)N(C)C)c3)c(C)c12 (stereo not drawn) [2-Hydroxy-2-{5-[3-(2-methoxy-phenyl)-4-methyl-1H-pyrrolo[2,3-b]pyridin-5-yl]-pyridin-3-yl}-N,N-dimethyl-acetamide] | D (<0.01 μM) | 10 to 100 | 10 to 100
